From ChEMBL document CHEMBL1201862, “PubChem BioAssay data set” (2004) come the findings set out here.

Among the test systems are HOP-18; OVCAR-8; SK-MEL-28; SF-295; RXF 631; HCT-116; HCT-15; DLD-1; KM-20L2; M19-MEL; RPMI-8226; HL-60; CAKI-1; SF-539; NCI-H226; SR; MDA-MB-435; DU-145; PC-3; NCI/ADR-RES.
What all share (assay): NCI tumour cell line growth inhibition, 48 h

Molecules are shown by their SMILES.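 Following 48 hours of exposure in 96-well plates, responses at five concentrations were used to interpolate endpoints linearly. Abbreviation: GI50, concentration required for 50% inhibition of growth.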 The source made the active and inactive calls. Rule as the data show it: active = GI50 up to about 1.1 µM and inactive = higher.

As to `COc1cc(C2C(C(=O)O)=C(CO)Oc3cc4c(cc32)OCO4)cc(OC)c1OC` (centres undefined), the GI50 in the assay with HOP-18 was 77.1 µM (inactive); in the assay with OVCAR-8, > 100 µM (inactive); in the assay with SK-MEL-28, 83.6 µM (inactive); in the assay with SF-295, > 100 µM (inactive); in the assay with RXF 631, > 100 µM (inactive); in the assay on HCT-116, > 100 µM (inactive). The GI50 is over 100 µM in the assay on HCT-15; > 100 µM (inactive) in the assay with DLD-1; > 100 µM (inactive) in the assay with KM-20L2; > 100 µM (inactive) with M19-MEL; > 100 µM (inactive) in the assay with RPMI-8226; > 100 µM (inactive) with HL-60. For the same molecule, the GI50 in the assay on CAKI-1 is 44 µM (inactive).
On to `CC12Nc3ccccc3C1=C(c1ccccc1)CC1C(=O)OC(=O)C12` (centres undefined), for which the GI50 is > 100 µM (inactive) in the assay with OVCAR-8; > 100 µM (inactive) in the assay on SK-MEL-28; > 100 µM (inactive) in the assay with SF-295; > 100 µM (inactive) in the assay on RXF 631; > 100 µM (inactive) in the assay on HCT-116; over 100 µM in the assay on HCT-15. The GI50 in the assay on DLD-1, in the assay on SF-539, in the assay with KM-20L2, in the assay with M19-MEL, with RPMI-8226 and with HL-60 was > 100 µM (inactive) each time.
Regarding `NCCCNCCSSCc1ccccc1CSSCCNCCCN`, the GI50 was > 100 µM (inactive) in the assay on HOP-18; > 100 µM (inactive) with OVCAR-8; 75 µM (inactive) in the assay on SK-MEL-28; > 100 µM (inactive) with SF-295; > 100 µM (inactive) in the assay with RXF 631; 57.1 µM with HCT-15. Besides, the GI50 in the assay on DLD-1 was 44.4 µM (inactive); with SF-539, > 100 µM (inactive); in the assay with KM-20L2 it was > 100 µM (inactive); with M19-MEL, 50 µM (inactive); with RPMI-8226, 27.8 µM (inactive); in the assay with HL-60, 9.93 µM (inactive). Moreover, in the assay with CAKI-1, the GI50 is 35.7 µM (inactive).
For `CCCCCCCCCCCC[N+](CCCCCCCCCCCC)=C1SCCS1`, the GI50 in the assay on HOP-18 is 16.4 µM (inactive); with OVCAR-8, 2.86 µM (inactive); with SK-MEL-28, 11 µM (inactive); with SF-295, 3.05 µM (inactive); with RXF 631, 11.1 µM (inactive); in the assay with HCT-116, 2.84 µM (inactive). Besides, the GI50 in the assay on HCT-15 is 10.7 µM; in the assay on DLD-1, 8.47 µM (inactive); in the assay with SF-539, 12.5 µM (inactive); with KM-20L2 it was 5.28 µM (inactive); in the assay with M19-MEL, 3.29 µM (inactive); in the assay with NCI-H226 it was 14.2 µM (inactive). Also, the GI50 in the assay with RPMI-8226 is 1.49 µM (inactive); in the assay on HL-60 it was 0.163 µM (active); in the assay with SR it was 3.14 µM (inactive); in the assay with CAKI-1, 12.8 µM (inactive).
For the molecule `COc1ccc(C(=O)/C(Br)=C/C(=O)O)cc1`, the GI50 is 45.8 µM (inactive) with HOP-18; 25.8 µM (inactive) with MDA-MB-435; 32 µM (inactive) in the assay on DU-145; 21 µM (inactive) in the assay with OVCAR-8; 23.3 µM (inactive) in the assay on SK-MEL-28; 37.9 µM (inactive) in the assay with SF-295. The GI50 is 23.5 µM in the assay with HCT-15; 12.6 µM (inactive) with DLD-1; 29.7 µM (inactive) in the assay with PC-3; 29.5 µM (inactive) in the assay on KM-20L2; 21.3 µM (inactive) in the assay on NCI/ADR-RES; 14.5 µM (inactive) with M19-MEL. The GI50 with NCI-H226 was 27.3 µM (inactive); in the assay with RPMI-8226, 11.5 µM (inactive); in the assay on HL-60, 27.5 µM (inactive); in the assay with SR, 25.1 µM (inactive); with CAKI-1 it was 39.3 µM (inactive).
Take `CC(=O)C(C(=O)C(=O)Nc1cc(Cl)c(Cl)cc1Cl)c1csc(N)n1` (centres undefined): the GI50 is > 100 µM (inactive) with OVCAR-8; > 100 µM (inactive) with SK-MEL-28; > 100 µM (inactive) with SF-295; > 100 µM (inactive) in the assay with RXF 631; > 100 µM (inactive) with HCT-116; over 100 µM with HCT-15. In addition, the GI50 in the assay on DLD-1, with SF-539, with KM-20L2, with M19-MEL, in the assay with NCI-H226 and in the assay on RPMI-8226 was > 100 µM (inactive) each time. Further, the GI50 in the assay on HL-60, in the assay on SR and in the assay with CAKI-1 was > 100 µM (inactive) throughout.
`N/N=C1\C(=O)N(c2ccc(Cl)c(Cl)c2)C(=O)C1C(=O)Nc1ccc(Cl)c(Cl)c1` (centres undefined): the GI50 was 21.6 µM (inactive) in the assay on HOP-18; 42.8 µM (inactive) in the assay with OVCAR-8; 31 µM (inactive) in the assay on SK-MEL-28; 31.9 µM (inactive) in the assay with SF-295; 59.2 µM (inactive) with RXF 631; 75.2 µM (inactive) in the assay with HCT-116. Besides, the GI50 in the assay with HCT-15 was 50.7 µM; in the assay with DLD-1, 64 µM (inactive); in the assay on SF-539 it was 79.6 µM (inactive); in the assay with KM-20L2 it was 48.4 µM (inactive); with M19-MEL it was > 100 µM (inactive); in the assay on RPMI-8226, > 100 µM (inactive). Further, the GI50 in the assay on HL-60 was 74.5 µM (inactive).
